Measurements published in patent publication US20240199546A1, “INHIBITORS OF SOLUTE CARRIER FAMILY 6A MEMBER 19 (SLC6A19) AND METHODS OF USE THEREOF” (Maze Therapeutics, Inc., priority 2022, published 2024).

Target: T1, human SLC6A19 and TMEM27 (Homo sapiens, UniProt Q695T7)
T1 construct: expressed in transfected cells
T1 sequence (Q695T7 1-634): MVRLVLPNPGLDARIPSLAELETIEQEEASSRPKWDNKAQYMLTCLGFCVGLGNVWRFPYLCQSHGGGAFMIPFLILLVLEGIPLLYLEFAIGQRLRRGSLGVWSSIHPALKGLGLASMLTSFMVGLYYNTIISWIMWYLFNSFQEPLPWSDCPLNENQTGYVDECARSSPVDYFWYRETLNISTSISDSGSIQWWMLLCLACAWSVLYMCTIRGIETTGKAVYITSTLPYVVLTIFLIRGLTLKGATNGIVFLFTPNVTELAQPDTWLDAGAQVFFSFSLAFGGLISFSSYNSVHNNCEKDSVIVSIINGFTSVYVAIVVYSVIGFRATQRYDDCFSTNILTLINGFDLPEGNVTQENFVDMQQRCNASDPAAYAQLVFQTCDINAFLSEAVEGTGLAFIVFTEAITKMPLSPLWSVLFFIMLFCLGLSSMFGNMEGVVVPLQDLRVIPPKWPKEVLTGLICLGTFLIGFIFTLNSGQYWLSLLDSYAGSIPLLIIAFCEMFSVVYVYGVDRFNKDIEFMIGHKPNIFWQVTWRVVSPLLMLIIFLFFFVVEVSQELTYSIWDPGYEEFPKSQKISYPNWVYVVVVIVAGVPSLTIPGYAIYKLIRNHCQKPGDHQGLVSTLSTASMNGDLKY
T1 sequence (Q9HBJ8 15-222 partner): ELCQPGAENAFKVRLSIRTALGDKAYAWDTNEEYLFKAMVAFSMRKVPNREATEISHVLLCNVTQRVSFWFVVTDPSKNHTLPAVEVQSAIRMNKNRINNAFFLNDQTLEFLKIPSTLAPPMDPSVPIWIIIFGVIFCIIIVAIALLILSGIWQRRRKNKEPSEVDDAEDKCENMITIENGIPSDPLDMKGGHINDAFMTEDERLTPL
Assay: Radiolabelled (3H) leucine uptake in CHO cells with doxycycline-inducible expression of human SLC6A19 and TMEM27 (Example B-1)
Format: cell-based
Conditions: CHO cells with doxycycline-inducible expression of human SLC6A19 and TMEM27, read-out: SLC6A19_Radioligand Uptake Assay IC50
Experimental: The flasks were then incubated (humidified, 37° C. with 5% CO2) for 2 minutes. After incubation, 10 mL of pre-warmed cell culture media was added to each flask. The cell suspension was collected and centrifuged for 5 minutes at 200×g. The supernatant was aspirated and the pellet was resuspended in 5 mL pre-warmed cell culture media. The resuspended cells were counted using the Countess Cell Counting Chamber (Invitrogen) and the cell concentration of the suspension was readjusted to 1 million live cells/mL using pre-warmed cell culture media. […] Assay plates were then incubated (humidified, 37° C. with 5% CO2) for 18 hours. After incubation, the media was aspirated and the wells were washed 4 times with pre-warmed HBSS (Sigma-Aldrich, H8264-1L) using an Apricot S-Pipette S2 (Apricot Designs), such that 5 uL/well HBSS was remaining at the end of each wash. […] At this step, the final in-well DMSO concentration in the assay plate is 0.5%. All compounds were plated in a duplicate 8-point dilution series that consisted of 3-fold dilutions. The plates were incubated with compound (humidified, 37° C. with 5% CO2) for 1 hour. […] The plates were then incubated (humidified, 37° C. with 5% CO2) on a plate shaker at 200 rpm for 2 hours. After incubation, the plates were removed from the shaker and kept at room temperature for 15 minutes. Liquid scintillation analysis was performed using the MicroBeta2 Microplate Counter (Perkin Elmer). Activity (%) was derived by normalizing the average of positive control compound treated wells to 0% and the average of DMSO (negative control) wells to 100%. Collaborative Drug Discovery software was used for graphing data.

IC50 [nM]	Structure (SMILES)
1150	Cc1cc(COc2cc3[nH]c(CNC(=O)[C@@H]4CC(F)(F)CN4C)cc3cc2Cl)on1 [Compound 668, (S)-N-((5-chloro-6-((3-methylisoxazol-5-yl)methoxy)-1H-indol-2-yl)methyl)-4,4-difluoro-1-methylpyrrolidine-2-carboxamide]
121	O=C(NCc1cc2cc(F)c(OCc3cscn3)cc2[nH]1)C1(C(F)F)CC1 [Compound 569, 1-(difluoromethyl)-N-((5-fluoro-6-(thiazol-4-ylmethoxy)-1H-indol-2-yl)methyl)cyclopropane-1-carboxamide]
590	CC1(C(=O)NCc2cc3cc(C4CC4(F)F)c(OCc4ccon4)cc3[nH]2)CC1 (racemic) [Compound 658, N-((5-(2,2-difluorocyclopropyl)-6-(isoxazol-3-ylmethoxy)-1H-indol-2-yl)methyl)-1-methylcyclopropane-1-carboxamide]
320	Cc1cc(COc2cc3[nH]c(CNC(=O)C4(C)CC4)cc3cc2OC(F)F)on1 [Compound 606, N-((5-(difluoromethoxy)-6-((3-methylisoxazol-5-yl)methoxy)-1H-indol-2-yl)methyl)-1-methylcyclopropane-1-carboxamide]
3520	Cc1cc(COc2cc3[nH]c(CNC(=O)CN)cc3cc2Cl)on1 [Compound 617, 2-amino-N-((5-chloro-6-((3-methylisoxazol-5-yl)methoxy)-1H-indol-2-yl)methyl)acetamide]
145	O=C(NCc1cc2cc(Cl)c(OCc3cscn3)cc2[nH]1)[C@@H]1C[C@H]1F [Compound 543, (1S,2R)-N-((5-chloro-6-(thiazol-4-ylmethoxy)-1H-indol-2-yl)methyl)-2-fluorocyclopropane-1-carboxamide]
118	Cc1cc(COc2cc3[nH]c(CNC(=O)CC(F)F)cc3cc2Cl)on1 [Compound 519, N-((5-chloro-6-((3-methylisoxazol-5-yl)methoxy)-1H-indol-2-yl)methyl)-3,3-difluoropropanamide]
631	CC1(C(=O)NCc2cc3cc(CC#N)c(OCc4cscn4)cc3[nH]2)CC1 [Compound 643, N-((5-(cyanomethyl)-6-(thiazol-4-ylmethoxy)-1H-indol-2-yl)methyl)-1-methylcyclopropane-1-carboxamide]

Continued, compound first:

Structure (SMILES)	IC50 [nM]
Cc1cc(COc2cc3[nH]c(CNC(=O)c4ccon4)cc3cc2Cl)on1 [Compound 450, N-((5-chloro-6-((3-methylisoxazol-5-yl)methoxy)-1H-indol-2-yl)methyl)isoxazole-3-carboxamide]	95.1
Cc1cc(COc2cc3[nH]c(CNC(=O)CC4CCCO4)cc3cc2Cl)on1 (centres unmarked) [Compound 310, N-((5-chloro-6-((3-methylisoxazol-5-yl)methoxy)-1H-indol-2-yl)methyl)-2-(tetrahydrofuran-2-yl)acetamide]	2520
CC1(C(=O)NCc2cc3ccc(OCc4cscn4)c(F)c3[nH]2)CC1 [Compound 19, N-((7-fluoro-6-(thiazol-4-ylmethoxy)-1H-indol-2-yl)methyl)-1-methylcyclopropane-1-carboxamide]	341
CC1(C(=O)NCc2cc3cc(Cl)c(OCc4cnccc4F)cc3[nH]2)CC1 [Compound 356, N-((5-chloro-6-((4-fluoropyridin-3-yl)methoxy)-1H-indol-2-yl)methyl)-1-methylcyclopropane-1-carboxamide]	389
Cc1coc(COc2cc3[nH]c(CNC(=O)C4(C)CC4)cc3cc2Cl)n1 [Compound 71, N-((5-chloro-6-((4-methyloxazol-2-yl)methoxy)-1H-indol-2-yl)methyl)-1-methylcyclopropane-1-carboxamide]	111
O=C(CC(F)F)NCc1cc2cc(Cl)c(OCc3cscn3)cc2[nH]1 [Compound 513, N-((5-chloro-6-(thiazol-4-ylmethoxy)-1H-indol-2-yl)methyl)-3,3-difluoropropanamide]	86.2
C[C@H]1CCCN1C(=O)NCc1cc2cc(F)c(OCc3cscn3)cc2[nH]1 [Compound 385, (S)-N-((5-fluoro-6-(thiazol-4-ylmethoxy)-1H-indol-2-yl)methyl)-2-methylpyrrolidine-1-carboxamide]	549
CC(=O)NCc1cc2cc(Cl)c(OC[C@@H]3CCCO3)cc2[nH]1 [Compound 466, (S)-N-((5-chloro-6-((tetrahydrofuran-2-yl)methoxy)-1H-indol-2-yl)methyl)acetamide]	2960
C[C@@H]1CCN1C(=O)NCc1cc2cc(Cl)c(OCc3cscn3)cc2[nH]1 [Compound 361, (R)-N-((5-chloro-6-(thiazol-4-ylmethoxy)-1H-indol-2-yl)methyl)-2-methylazetidine-1-carboxamide]	286
Cc1cc(COc2cc3[nH]c(CNC(=O)C4(C)CC4)cc3cc2F)no1 [Compound 329, N-((5-fluoro-6-((5-methylisoxazol-3-yl)methoxy)-1H-indol-2-yl)methyl)-1-methylcyclopropane-1-carboxamide]	167
CC(=O)NCc1cc2cc(Cl)c(OCCC3CCCO3)cc2[nH]1 (centres unmarked) [Compound 455, N-((5-chloro-6-(2-(tetrahydrofuran-2-yl)ethoxy)-1H-indol-2-yl)methyl)acetamide]	3530
CCNC(=O)NCc1cc2cc(Cl)c(OCc3cc(C)no3)cc2[nH]1 [Compound 369, 1-((5-chloro-6-((3-methylisoxazol-5-yl)methoxy)-1H-indol-2-yl)methyl)-3-ethylurea]	125
O=C(CCO)NCc1cc2cc(Cl)c(OCc3cscn3)cc2[nH]1 [Compound 309, N-((5-chloro-6-(thiazol-4-ylmethoxy)-1H-indol-2-yl)methyl)-3-hydroxypropanamide]	1750
Cc1cc(COc2cc3[nH]c(CNC(=O)[C@@H]4CCO4)cc3cc2Cl)on1 [Compound 276, (S)-N-((5-chloro-6-((3-methylisoxazol-5-yl)methoxy)-1H-indol-2-yl)methyl)oxetane-2-carboxamide]	94
CCC(=O)NCc1cc2c(F)cc(OCc3cscn3)cc2[nH]1 [Compound 515, N-((4-fluoro-6-(thiazol-4-ylmethoxy)-1H-indol-2-yl)methyl)propionamide]	116
CC[C@H](O)C(=O)NCc1cc2cc(Cl)c(OCc3cc(C)no3)cc2[nH]1 [Compound 240, (S)-N-((5-chloro-6-((3-methylisoxazol-5-yl)methoxy)-1H-indol-2-yl)methyl)-2-hydroxybutanamide]	490
O=C(NCc1cc2cc(Cl)c(CCc3cscn3)cc2[nH]1)N1CCCC1 [Compound 418, N-((5-chloro-6-(2-(thiazol-4-yl)ethyl)-1H-indol-2-yl)methyl)pyrrolidine-1-carboxamide]	163
CC1(C(=O)NCc2cc3cc(F)c(OCc4ccno4)cc3[nH]2)CC1 [Compound 328, N-((5-fluoro-6-(isoxazol-5-ylmethoxy)-1H-indol-2-yl)methyl)-1-methylcyclopropane-1-carboxamide]	147
CC(=O)NCc1cc2cc(F)c(OCc3ccon3)cc2[nH]1 [Compound 207, N-((5-fluoro-6-(isoxazol-3-ylmethoxy)-1H-indol-2-yl)methyl)acetamide]	926
CC1(C(=O)NCc2cc3cc(F)c(OCc4cc(C(F)(F)F)on4)cc3[nH]2)CC1 [Compound 72, N-((5-fluoro-6-((5-(trifluoromethyl)isoxazol-3-yl)methoxy)-1H-indol-2-yl)methyl)-1-methylcyclopropane-1-carboxamide]	1240

Same assay, conditions: SLC6A19_Radioligand Uptake Assay IC50, CHO cells with doxycycline-inducible expression of human SLC6A19 and TMEM27

IC50 [nM]	Structure (SMILES)
376	Cc1cc(COc2cc3[nH]c(CNC(N)=O)cc3cc2Cl)on1 [Compound 637, 1-((5-chloro-6-((3-methylisoxazol-5-yl)methoxy)-1H-indol-2-yl)methyl)urea]
